Reference: US4007267A, “Antibiotic B-98891” (priority 1974, dated 1977)
Converted amounts (≈) assume the structure as drawn. “Also recorded” adds a separate entry of the source. Like-named read-outs stand apart in the source and are kept apart here.

Legend:
[1] = tested on: Escherichia coli IFO-3044; assay: Antimicrobial spectrum (in vitro), agar dilution and diffusion methods; assay type: cell-based; conditions: medium B, 37 °C, time 20
Protocol: (§1) The antimicrobial spectrum of the antibiotic B-98891 as measured by the agar dilution and diffusion methods is shown in Table 3. The "diameter of inhibition zone" in the table represents the diameter of the inhibition zone formed around a paper disc(7 mm. in diameter) immersed in a 5000 μg/ml. solution of the present antibiotic.
(§2) B 0.5 % ehrlich's meat extract, 0.5 % polypeptone, 0.5 % NaCl, 1.5 % agar (pH 7)

[2] = tested on: Pseudomonas aeruginosa IFO-3080; assay: as above; assay type: cell-based; conditions: medium B, 37 °C, time 20
Protocol: as §1, §2

[3] = tested on: Proteus vulgaris IFO-3045; assay: as above; assay type: cell-based; conditions: medium B, 37 °C, time 20
Protocol: as §1, §2

[4] = tested on: Bacillus subtilis IFO-3513; assay: as above; assay type: cell-based; conditions: medium B, 37 °C, time 20
Protocol: as §1, §2

[5] = tested on: Staphylococcus aureus IFO-3061; assay: as above; assay type: cell-based; conditions: medium B, 37 °C, time 20
Protocol: as §1, §2

[6] = tested on: Sphaerotheca fuliginea Pollacci; assay: Control effect against drug-resistant powdery mildew on cucumber; conditions: 40 ppm, 7 days
From the text: (§6) The control chemical was also similarly diluted with water.
The leaves of a cucumber plant (Cucumis sativus L. f. Suyo) infected with powdery mildew were flipped over a 1-month cucumber plant in a pot so that the latter was inoculated with Sphaerotheca fuliginea Pollacci. After 1 day, the fungicidal solutions prepared in the same manner as Test Example 1 were sprayed in sufficient volume over the plant. After about 14 days, the fungal growth formed were used to further inoculate intact cucumber plants. One day after the inoculation, fungicidal solution was sprayed and, after 7 days, the percent area of the lesion was determined.

[7] = tested on: Mycobacterium smegmatis ATCC-607; assay: Antimicrobial spectrum (in vitro), agar dilution and diffusion methods; assay type: cell-based; conditions: medium C, 37 °C, time 40
Protocol: as §1
(§3) C 3.0 % glycerin, 0.5 % Ehrlich's meat extract, 0.5 % polypeptone, 0.5 % NaCl, 1.5 % agar (pH 7.0)

[8] = tested on: Mycobacterium phlei IFO-3158; assay: as above; assay type: cell-based; conditions: medium C, 37 °C, time 40
Protocol: as §1, §3

powdery mildew of barley = assay: Control test of powdery mildew of barley (pots); assay type: in vivo, Erysiphe graminis
powdery mildew of rose [9] = assay: Control test of the powdery mildew of rose (Super Star); assay type: in vivo
Protocol: (§4) For this test, rose (Rosa spp.) plants were grown in pots at a green-house.As test plants (forma species: Super Star and Arlene Francis) were used in groups of 3 pots per treatment. […] The number of diseased leaflets on three branches per pot was investigated 7 days after the third application and the percentage of diseased leaflets relative to the total number of leaflets investigated was calculated.

[10] = tested on: Saccharomyces cerevisiae IFO-0209; assay: Antimicrobial spectrum (in vitro), agar dilution and diffusion methods; assay type: cell-based; conditions: medium A, 28 °C, time 40
[11] = tested on: Rhodotorula rubra IFO-0870; assay: as above; assay type: cell-based; conditions: medium A, 28 °C, time 40
[12] = tested on: certain gram-positive bacteria, gram-negative bacteria, phytopathogenic fungi and certain yeasts; assay: Antimicrobial spectrum, summary; assay type: cell-based; conditions: in vitro
Protocol: as §1

powdery mildew of pepper = assay: Control test of powdery mildew of pepper
Protocol: as §6
The reverse sides of unfolded leaves of pot-grown pepper plants (9 to 10-leaf stage, Capsicum annuum L. f. California Wonder) were inoculated, by dusting, with the pathogenic fungi from infected leaves. Two days later, the leaves were sprayed with adequate volume of test solutions as in Test Example 1. Then, the plants were grown and cared in a green-house and, after timed intervals, the percent area of fungal growth was determined. This test was performed in duplicate for each group.

[13] = tested on: powdery mildew of tobacco plant; assay: Control test of powdery mildew of tobacco plant
Protocol: as §6
Tobacco plants (Nicotiana tabacum L. f. MC) grown in pots, with the fourth mature leaf sufficiently unfolded, were prepared in a green-house, two pots per group, for this test. To encourage the onset of the disease, the pots of diseased plants were placed next to the test pots for spontaneous infection. The fungicidal solutions were prepared in the same manner as Test Example 1 and sprayed onto the test plants in two divided doses, each in sufficient volume, at intervals of 10 days. The percent area of the lesion was investigated 9 days and 15 days, respectively, after the last application.

[14] = tested on: powdery mildew of oak tree; assay: Control test of powdery mildew of oak tree
Protocol: as §6
This test was conducted with shoots of naturally grown oak (Quercus glauca Thunb.) trees about 10 years old. The fungicidal solutions prepared in the same manner as Test Example 1 were applied in mists.
The old mature leaves had already been severely diseased and, therefore, spontaneous infection of young leaves on the shoots was expected.
The number of treated leaves was 50 per group. The percent area of the lesion on treated leaves was investigated at 7 days after the treatment.

Erysiphe graminis = assay: Activity against powdery mildew of barley (seedlings in test tubes); conditions: for Percent area of lesion: 18 °C, 7 days
Protocol: The unfolded leaves were inoculated with conidia of Erysiphe graminis using a small brush and each stock was kept in a test tube at 18° C for 7 days. The percent area of the resultant lesion was calculated to determine the effect of the test drug.

[15] = tested on: Guignardia laricina IFO-7888; assay: Antimicrobial spectrum (in vitro), agar dilution and diffusion methods; assay type: cell-based; conditions: medium A, 28 °C, time 88
Protocol: as §1
(§5) A 3.0 % sucrose, 0.2 % L-asparagine, 0.3 % NH4 NO3, 0.1 % KH2 PO4, 0.1 % MgSO4.7H2 O, 0.001 % versenol (manufactured by Dow Chemical Co.; an iron chelate compound; content of iron-sodium ethanol ethylene diamine triacetate is 57.04 %), 1.5 % agar (pH 7) Before use, the following vitamins are added to the medium to the indicated final concentrations. 1 μg/ml. thiamine, 1 μg/ml. riboflavin, 1 μg/ml. calcium pantothenate, 1 μg/ml. niacin, 0.005 μg/ml. biotin, 0.5 μg/ml. folic acid, 2 μg/ml. pyridoxine hydrochloride, 0.5 μg/ml. p-aminobenzoic acid, 0.0002 μg/ml. cyanocobalamin

Botrytis cinerea TKF-12 = assay: as above; assay type: cell-based; conditions: medium A, 20 °C, time 88
Protocol: as §1, §5

[16] = tested on: Penicillium expansum IFO-7813; assay: as above; assay type: cell-based; conditions: medium A, 28 °C, time 40
[17] = tested on: Trichophyton mentagrophytes IFO-5809; assay: as above; assay type: cell-based; conditions: medium D, 28 °C, time 88
Protocol: as §1

[18] = tested on: Cochliobolus miyabeanus IFO-5277; assay: as above; assay type: cell-based; conditions: medium A, 28 °C, time 40
powdery mildew of rose [19] = assay: Control test of the powdery mildew of rose (Arlene Francis); assay type: in vivo
Protocol: as §4

[20] = tested on: Phytophthora infestans (Montagne) de Bary; assay type: in vivo
Japanese killifish = assay: Fish toxicity test; assay type: in vivo; conditions: 20 ppm, 7 days observation
[21] = tested on: Pyricularia oryzae IFO-5279; assay type: cell-based; conditions: medium A, 28 °C, time 40
[22] = tested on: Sclerotinia sclerotiorum IFO-9395; assay: Antimicrobial spectrum (in vitro), agar dilution and diffusion methods; assay type: cell-based; conditions: medium A, 28 °C, time 40
[23] = tested on: Aspergillus niger IFO-4066; assay: as above; assay type: cell-based; conditions: medium A, 28 °C, time 40
[24] = tested on: Sphaerotheca fuliginea (Schlechtendahl) Pollacci; assay: Control test of powdery mildew of oriental melon; assay type: in vivo
[25] = tested on: Penicillium chrysogenum IFO-4626; assay: Antimicrobial spectrum (in vitro), agar dilution and diffusion methods; assay type: cell-based; conditions: medium A, 28 °C, time 40
[26] = tested on: powdery mildew of apple plant; assay: Control test of powdery mildew of apple plant; assay type: in vivo; conditions: 12 days
Protocol: as §6
The seedlings of the apple (Malus pumila Miller var. domestica Schneider f. Rall's Janet) in their 5- to 8-leaf stage were employed. The pathogenic fungi on diseased leaves of an apple plant were dusted over the tops of the seedlings which, then, were kept in a green-house. […] After the application, the seedlings were further grown in a green-house. After 12 days, the percent area of the lesion was investigated. The test was conducted in hexaplicate for each group.

[27] = tested on: Candida albicans IFO-0583; assay: Antimicrobial spectrum (in vitro), agar dilution and diffusion methods; assay type: cell-based; conditions: medium A, 28 °C, time 40

NC(N)=NCC(O)CC(O)(C(=O)O)[C@H]1O[C@@H](n2cc(CO)c(N)nc2=O)C=C[C@@H]1NC(=O)[C@@H](N)CO (some centres unmarked) [B-98891]
Minimal inhibitory concentration [1]: 500 µg/mL (≈ 972 µM)
Diameter of inhibition zone ([1]; paper disc 7 mm, 5000 μg/ml): 14 mm
Minimal inhibitory concentration [2]: > 500 µg/mL
Minimal inhibitory concentration [3]: > 500 µg/mL
Diameter of inhibition zone ([3]; paper disc 7 mm, 5000 μg/ml): 11 mm
Minimal inhibitory concentration [4]: > 500 µg/mL
Diameter of inhibition zone ([4]; paper disc 7 mm, 5000 μg/ml): 14 mm
Minimal inhibitory concentration [5]: > 500 µg/mL
Diameter of inhibition zone ([5]; paper disc 7 mm, 5000 μg/ml): 10 mm
Percent area of lesion ([6]; inoculum: control (untreated)): 15.8%
Percent area of lesion ([6]; inoculum: lesions after application of B-98891 (80ppm)): 18.3%
Percent area of lesion ([6]; inoculum: lesions after application of Benlate WP (250 ppm)): 21.7%
Minimal inhibitory concentration [7]: 250 µg/mL (≈ 486 µM)
Diameter of inhibition zone ([7]; paper disc 7 mm, 5000 μg/ml): 24 mm
Minimal inhibitory concentration [8]: 50 µg/mL (≈ 97.2 µM)
Diameter of inhibition zone ([8]; paper disc 7 mm, 5000 μg/ml): 27 mm
Percent area of lesions (powdery mildew of barley; 15.6 ppm, 6th leaf, A: 10 days after first application): 0.4%
Percent area of lesions (powdery mildew of barley; 15.6 ppm, 6th leaf, B: 10 days after second application): 2.1%
Percent area of lesions (powdery mildew of barley; 15.6 ppm, 6th leaf, C: 10 days after third application): 0.8%
Percent area of lesions (powdery mildew of barley; 15.6 ppm, 9th leaf, B: 10 days after second application): 2.3%
Percent area of lesions (powdery mildew of barley; 15.6 ppm, 9th leaf, C: 10 days after third application): 10.5%
Percent area of lesions (powdery mildew of barley; 31.2 ppm, 6th leaf, A: 10 days after first application): 0.3%
Percent area of lesions (powdery mildew of barley; 31.2 ppm, 6th leaf, B: 10 days after second application): 2.0%
Percent area of lesions (powdery mildew of barley; 31.2 ppm, 6th leaf, C: 10 days after third application): 1.3%
Percent area of lesions (powdery mildew of barley; 31.2 ppm, 9th leaf, B: 10 days after second application): 0.3%
Percent area of lesions (powdery mildew of barley; 31.2 ppm, 9th leaf, C: 10 days after third application): 1.3%
Percent area of lesions (powdery mildew of barley; 62.5 ppm, 6th leaf, A: 10 days after first application): 0.1%
Percent area of lesions (powdery mildew of barley; 62.5 ppm, 6th leaf, B: 10 days after second application): 0.1%
Percent area of lesions (powdery mildew of barley; 62.5 ppm, 6th leaf, C: 10 days after third application): 0%
Percent area of lesions (powdery mildew of barley; 62.5 ppm, 9th leaf, B: 10 days after second application): 0.5%
Percent area of lesions (powdery mildew of barley; 62.5 ppm, 9th leaf, C: 10 days after third application): 0.4%
Percent of diseased leaflet (powdery mildew of rose [9]; 40 ppm): 5.6%
Percent of diseased leaflet (powdery mildew of rose [9]; 80 ppm): 3.2%
Percent of diseased leaflet (powdery mildew of rose [9]; 160 ppm): 2.6%
Minimal inhibitory concentration [10]: > 500 µg/mL
Diameter of inhibition zone ([10]; paper disc 7 mm, 5000 μg/ml): 12 mm
Minimal inhibitory concentration [11]: 50 µg/mL (≈ 97.2 µM)
Diameter of inhibition zone ([11]; paper disc 7 mm, 5000 μg/ml): 80 mm
antimicrobial activity [12]: weakly active
Percent area of the lesion (powdery mildew of pepper; 80 ppm, 7 days): 7.9%
Percent area of the lesion (powdery mildew of pepper; 80 ppm, 10 days): 10.3%
Percent area of the lesion (powdery mildew of pepper; 160 ppm, 7 days): 5.0%
Percent area of the lesion (powdery mildew of pepper; 160 ppm, 10 days): 4.6%
Percent area of lesion ([13]; 40 ppm, 9 days): 11.6%
Percent area of lesion ([13]; 40 ppm, 15 days): 20.4%
Percent area of lesion ([13]; 80 ppm, 9 days): 10.0%
Percent area of lesion ([13]; 80 ppm, 15 days): 13.2%
Percent area of lesion ([13]; 160 ppm, 9 days): 6.0%
Percent area of lesion ([13]; 160 ppm, 15 days): 8.5%
Percent area of lesion ([14]; 40 ppm, 7 days): 8.3%
Percent area of lesion ([14]; 40 ppm, 14 days): 26.4%
Percent area of lesion ([14]; 80 ppm, 7 days): 1.1%
Percent area of lesion ([14]; 80 ppm, 14 days): 1.5%
Percent area of lesion ([14]; 160 ppm, 7 days): 0.6%
Percent area of lesion ([14]; 160 ppm, 14 days): 0.5%
toxicity in rats (summary) (Acute toxicity in rats): mild
LD50 (Acute toxicity in rats; intravenous): > 500 mg/kg
LD50 (Acute toxicity in rats; oral): > 2000 mg/kg
Percent area of lesion (Erysiphe graminis; 3.12 ppm): 40%
Percent area of lesion (Erysiphe graminis; 6.25 ppm): 26%
Percent area of lesion (Erysiphe graminis; 12.5 ppm): 0%
Percent area of lesion (Erysiphe graminis; 25 ppm): 0%
Percent area of lesion (Erysiphe graminis; 50 ppm): 0%
onset control activity (Erysiphe graminis; compared with the commercially available chemical (Benomyl wettable powder)): more potent onset control activity than the commercially available chemical
activity against the causative agent of powdery mildew of barley (Erysiphe graminis) (summary) (Erysiphe graminis; in vivo): characteristically high activity
Minimal inhibitory concentration [15]: 100 µg/mL (≈ 194 µM)
Diameter of inhibition zone ([15]; paper disc 7 mm, 5000 μg/ml): 18 mm
Minimal inhibitory concentration (Botrytis cinerea TKF-12): 250 µg/mL (≈ 486 µM)
Diameter of inhibition zone (Botrytis cinerea TKF-12; paper disc 7 mm, 5000 μg/ml): 15 mm
Minimal inhibitory concentration [16]: 100 µg/mL (≈ 194 µM)
Diameter of inhibition zone ([16]; paper disc 7 mm, 5000 μg/ml): 25 mm
Minimal inhibitory concentration [17]: 500 µg/mL (≈ 972 µM)
Minimal inhibitory concentration [18]: > 500 µg/mL
Diameter of inhibition zone ([18]; paper disc 7 mm, 5000 μg/ml): 15 mm
Percent of diseased leaflet (powdery mildew of rose [19]; 40 ppm): 14.9%
Percent of diseased leaflet (powdery mildew of rose [19]; 80 ppm): 6.7%
Percent of diseased leaflet (powdery mildew of rose [19]; 160 ppm): 2.2%
Degree of sporulation ([20]; 250 ppm): Moderate
Percent area of lesions ([20]; 250 ppm): 100%
Degree of sporulation ([20]; 500 ppm): None
Percent area of lesions ([20]; 500 ppm): 0%
fish toxicity (Japanese killifish): no toxic effect; also recorded: substantially harmless to fish
Minimal inhibitory concentration [21]: > 500 µg/mL
Minimal inhibitory concentration [22]: 500 µg/mL (≈ 972 µM)
Diameter of inhibition zone ([22]; paper disc 7 mm, 5000 μg/ml): 20 mm
Minimal inhibitory concentration [23]: > 500 µg/mL
toxicity in mice (summary) (Acute toxicity in mice): mild
LD50 (Acute toxicity in mice; intravenous): > 500 mg/kg
LD50 (Acute toxicity in mice; oral): > 2000 mg/kg
Percent area of the lesion ([24]; 40 ppm, 7 days): 0%
Percent area of the lesion ([24]; 40 ppm, 14 days): 19.0%
Percent area of the lesion ([24]; 40 ppm, 21 days): 40.0%
Percent area of the lesion ([24]; 80 ppm, 7 days): 1.5%
Percent area of the lesion ([24]; 80 ppm, 14 days): 7.0%
Percent area of the lesion ([24]; 80 ppm, 21 days): 24.0%
Percent area of the lesion ([24]; 160 ppm, 7 days): 0.6%
Percent area of the lesion ([24]; 160 ppm, 14 days): 0.6%
Percent area of the lesion ([24]; 160 ppm, 21 days): 5.0%
Minimal inhibitory concentration [25]: > 500 µg/mL
Diameter of inhibition zone ([25]; paper disc 7 mm, 5000 μg/ml): 13 mm
Percent area of the lesion ([26]; 40 ppm): 0.9%
Percent area of the lesion ([26]; 80 ppm): 0.6%
Percent area of the lesion ([26]; 160 ppm): 0%
Minimal inhibitory concentration [27]: > 500 µg/mL
